Read-outs that look alike come from different tables or passages of the source.
Assays:
[1] = tested on: 60 cancer cell lines (NCI 60 cancer cell line series); settings: cited from earlier work
[2] = tested on: 60 cancer cell lines (NCI 60 cancer cell line series); experiment: NCI-DTP in vitro cancer screen, sulforhodamine B (SRB) growth inhibition, 48 hour exposure; type: cell-based, human
Summary of the method: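 NCI-DTP panel of 60 cancer cell lines plated day 0 at line-specific densities, exposed from day 1 to compound at 5 ten-fold-spaced doses in duplicate wells. After 48 h, cell mass stained with sulforhodamine B; −log GI50 derived from dose–response curves, averaged, and classed Low, Medium or High sensitivity.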

In the case of `CN(Cc1cnc2nc(N)nc(N)c2n1)c1ccc(C(=O)N[C@@H](CCC(=O)O)C(=O)O)cc1` [Methotrexate], the “−Log (GI50)” value ([1]; Leukemia HL-60(I) CL7008) is given as 7.4, the “−Log (GI50)” value ([1]; Melanoma M14 CL10014) is given as 7.5 and the “−Log (GI50)” value ([1]; NSCLC EKVX CL1008) is given as 5.0. For the same molecule, the “−Log (GI50)” value ([1]; NSCLC HOP-92 CL1029) was 5.1, the “−Log (GI50)” value ([1]; Renal 786-0 CL9018) was 7.5 and the “classification of cell line as Low(1), Medium(2), High(3) sensitivity to compound” value (“classification of cell line” for short) ([2]; Breast BT-549 CL5013) was 1. The “classification of cell line” value ([2]; Breast HS-578T CL5006) was 1, the “classification of cell line” value ([2]; Breast MDA-MB-231 CL5005) was 1 and the “classification of cell line” value ([2]; Breast T-47D CL5014) was 1. The “classification of cell line” value ([2]; CNS SF-268 CL12014) was 2, the “classification of cell line” value ([2]; CNS SF-295 CL12015) was 3 and the “classification of cell line” value ([2]; CNS SF-539 CL12016) was 3. The “classification of cell line” value ([2]; CNS U251(I) CL12009) was 2, the “classification of cell line” value ([2]; Colon COLO-250 CL4010) was 2 and the “classification of cell line” value ([2]; Colon HCC-2998 CL4002) was 2. The “classification of cell line” value ([2]; Colon HCT-15 CL4015) was 3, the “classification of cell line” value ([2]; Colon HCT-116 CL4003) was 3 and the “classification of cell line” value ([2]; Colon KM12 CL4017) was 2. For the same molecule, the “classification of cell line” value ([2]; Leukemia HL-60(I) CL7008) was 2, the “classification of cell line” value ([2]; Leukemia K562(I) CL7005) was 3 and the “classification of cell line” value ([2]; Leukemia RPMI-8226(I) CL7010) was 2. For the same molecule, the “classification of cell line” value ([2]; Leukemia SR CL7019) was 3, the “classification of cell line” value ([2]; Melanoma LOX IMVI CL10001) was 3 and the “classification of cell line” value ([2]; Melanoma SK-MEL-2 CL10005) was 1. The “classification of cell line” value ([2]; Melanoma SK-MEL-5 CL10007) was 2, the “classification of cell line” value ([2]; Melanoma SK-MEL-28 CL10008) was 1 and the “classification of cell line” value ([2]; Melanoma UACC-62 CL10020) was 3. For the same molecule, the “classification of cell line” value ([2]; NSCLC A549/ATCC CL1004) was 3, the “classification of cell line” value ([2]; NSCLC EKVX CL1008) was 1 and the “classification of cell line” value ([2]; NSCLC HOP-62 CL1026) was 2. The “classification of cell line” value ([2]; NSCLC HOP-92 CL1029) was 1, the “sensitivity classification Low(1)/Medium(2)/High(3)” value ([2]; NSCLC NCI-H23(I) CL1001) was 2 and the “classification of cell line” value ([2]; NSCLC NCI-H226 CL1013) was 1. For the same molecule, the “sensitivity classification Low(1)/Medium(2)/High(3)” value ([2]; NSCLC NCI-H332M CL1017) was 2, the “sensitivity classification Low(1)/Medium(2)/High(3)” value ([2]; NSCLC NCI-H460 CL1021) was 3 and the “sensitivity classification Low(1)/Medium(2)/High(3)” value ([2]; Ovarian IGROV1 CL6010) was 2. For the same molecule, the “sensitivity classification Low(1)/Medium(2)/High(3)” value ([2]; Ovarian OVCAR-3 CL6001) was 2, the “sensitivity classification Low(1)/Medium(2)/High(3)” value ([2]; Ovarian OVCAR-4 CL6002) was 1 and the “sensitivity classification Low(1)/Medium(2)/High(3)” value ([2]; Ovarian OVCAR-5 CL6003) was 2. The “sensitivity classification Low(1)/Medium(2)/High(3)” value ([2]; Prostate DU-145 CL11003) was 2, the “sensitivity classification Low(1)/Medium(2)/High(3)” value ([2]; Renal A498 CL9013) was 1 and the “sensitivity classification Low(1)/Medium(2)/High(3)” value ([2]; Renal ACHN CL9023) was 2. The “sensitivity classification Low(1)/Medium(2)/High(3)” value ([2]; Renal RXF-393 CL9016) was 1, the “sensitivity classification Low(1)/Medium(2)/High(3)” value ([2]; Renal SN12C CL9008) was 3 and the “sensitivity classification Low(1)/Medium(2)/High(3)” value ([2]; Renal TK10 CL9024) was 1. For the same molecule, the “sensitivity classification Low(1)/Medium(2)/High(3)” value ([2]; Renal UO-31 CL9004) was 2.

In the case of `CC(=O)O[C@H]1C(=O)[C@@]2(C)[C@H]([C@H](OC(=O)c3ccccc3)[C@]3(O)C[C@H](OC(=O)[C@H](O)[C@@H](NC(=O)c4ccccc4)c4ccccc4)C(C)=C1C3(C)C)[C@]1(OC(C)=O)CO[C@@H]1C[C@@H]2O` [TAXOL, paclitaxel, reference compound], the “−Log (GI50)” value ([1]; Breast MCF7/ADRr CL5002) is given as 5.5, the “−Log (GI50)” value ([1]; Colon COLO-250 CL4010) is given as 8.0 and the “−Log (GI50)” value ([1]; Melanoma SK-MEL-5 CL10007) is given as 6.3. The “−Log (GI50)” value ([1]; Melanoma UACC-62 CL10020) was 8.1, the “−Log (GI50)” value ([1]; Melanoma UACC-257 CL10021) was 7.1 and the “−Log (GI50)” value ([1]; NSCLC A549/ATCC CL1004) was 8.0. The “−Log (GI50)” value ([1]; NSCLC EKVX CL1008) was 4.8, the “−Log (GI50)” value ([1]; NSCLC HOP-62 CL1026) was 7.4 and the “−Log (GI50)” value ([1]; NSCLC HOP-92 CL1029) was 5.7. The “−Log (GI50)” value ([1]; Ovarian OVCAR-5 CL6003) was 6.8, the “classification of cell line” value ([2]; Breast BT-549 CL5013) was 2 and the “classification of cell line” value ([2]; Breast MCF7/ADRr CL5002) was 1. The “classification of cell line” value ([2]; Breast MDA-MB-231 CL5005) was 2, the “classification of cell line” value ([2]; Breast MDA-MB-435 CL5011) was 3 and the “classification of cell line” value ([2]; Breast MDA-N CL5012) was 3. For the same molecule, the “classification of cell line” value ([2]; CNS SF-268 CL12014) was 2, the “classification of cell line” value ([2]; CNS SF-295 CL12015) was 2 and the “classification of cell line” value ([2]; CNS SF-539 CL12016) was 2. For the same molecule, the “classification of cell line” value ([2]; CNS SNB-19 CL12002) was 2, the “classification of cell line” value ([2]; CNS U251(I) CL12009) was 2 and the “classification of cell line” value ([2]; Colon HCT-15 CL4015) was 1. The “classification of cell line” value ([2]; Colon HCT-116 CL4003) was 3, the “classification of cell line” value ([2]; Colon HT29(I) CL4001) was 3 and the “classification of cell line” value ([2]; Colon KM12 CL4017) was 2. The “classification of cell line” value ([2]; Leukemia MOLT-4 CL7006) was 2, the “classification of cell line” value ([2]; Leukemia RPMI-8226(I) CL7010) was 3 and the “classification of cell line” value ([2]; Melanoma M14 CL10014) was 2. The “sensitivity classification Low(1)/Medium(2)/High(3)” value ([2]; NSCLC NCI-H23(I) CL1001) was 2, the “sensitivity classification Low(1)/Medium(2)/High(3)” value ([2]; NSCLC NCI-H332M CL1017) was 2 and the “sensitivity classification Low(1)/Medium(2)/High(3)” value ([2]; Ovarian IGROV1 CL6010) was 2. The “sensitivity classification Low(1)/Medium(2)/High(3)” value ([2]; Ovarian OVCAR-4 CL6002) was 1, the “sensitivity classification Low(1)/Medium(2)/High(3)” value ([2]; Ovarian OVCAR-8 CL6005) was 2 and the “sensitivity classification Low(1)/Medium(2)/High(3)” value ([2]; Ovarian SK-OV-3 CL6011) was 2. For the same molecule, the “sensitivity classification Low(1)/Medium(2)/High(3)” value ([2]; Prostate DU-145 CL11003) was 2, the “sensitivity classification Low(1)/Medium(2)/High(3)” value ([2]; Prostate PC-3(I) CL11001) was 2 and the “sensitivity classification Low(1)/Medium(2)/High(3)” value ([2]; Renal 786-0 CL9018) was 2. For the same molecule, the “sensitivity classification Low(1)/Medium(2)/High(3)” value ([2]; Renal ACHN CL9023) was 1, the “sensitivity classification Low(1)/Medium(2)/High(3)” value ([2]; Renal CAKI-1 CL9015) was 1 and the “sensitivity classification Low(1)/Medium(2)/High(3)” value ([2]; Renal RXF-393 CL9016) was 2. For the same molecule, the “sensitivity classification Low(1)/Medium(2)/High(3)” value ([2]; Renal SN12C CL9008) was 2 and the “sensitivity classification Low(1)/Medium(2)/High(3)” value ([2]; Renal UO-31 CL9004) was 1.
